In patent publication US20040127403A1, “Methods for treating and preventing Gram-positive bacteremias” (priority 2002, published 2004):
Converted amounts (≈) assume the structure as drawn. Like-named read-outs stand apart in the source and are kept apart here.

Legend:
[1] = system: E. faecium 1836; test: MIC, NCCLS broth microdilution; type: cell-based; settings: Enterococcus faecium, 1836, E. faecium 1836
Procedure, shortened: (§1)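 CAMHB and TSB, each + 0.02% BSA (blocks ramoplanin binding to plastic); MIC by NCCLS broth microdilution.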

[2] = system: S. aureus ATCC700699 MRSA/VISA; test: MIC, NCCLS broth microdilution; type: cell-based
Procedure, shortened: as §1

[3] = system: S. aureus ATCC19636 MSSA; test: MIC, NCCLS broth microdilution; type: cell-based; settings: Staphylococcus aureus
Procedure, shortened: as §1

[4] = system: S. epidermidis ATCC18972; test: MIC, NCCLS broth microdilution; type: cell-based; settings: Staphylococcus epidermidis, ATCC18972, S. epidermidis ATCC18972
[5] = system: S. epidermidis ATCC35984; test: MIC, NCCLS broth microdilution; type: cell-based; settings: Staphylococcus epidermidis, ATCC35984, S. epidermidis ATCC35984
[6] = system: VanA strain of E. faecium (VRE); test: Suppression of VRE in a mouse colonization model; type: in vivo, Mice
Description: Mice were colonized with a clinical isolate VanA strain of E. faecium (VRE) isolated from a septicemic patient. A single inoculation of 5×10^8 cfu VRE by oral gavage (Day 0) was followed by treatment with vancomycin in the drinking water to maintain colonization. On day 22, each group received the same vancomycin-containing drinking water. One group also received ramoplanin (100 μg/mL) in its drinking water. The dose of ramoplanin per day was estimated to be 15 mg/kg, based on a standard water consumption of 150 mL/kg/day. Treatment with ramoplanin was discontinued on Day 29, and vancomycin treatment was discontinued on Day 36. The control group consisted of five mice, while the ramoplanin group consisted of four mice.

[7] = system: E. faecium A 6350 Line-R; test: MIC, NCCLS broth microdilution; type: cell-based
Procedure, shortened: as §1

[8] = Staphylococcus aureus, S. aureus ATCC700699 MRSA/VISA, Table 6, 1st, read-out: MIC
[9] = Staphylococcus aureus, S. aureus ATCC700699 MRSA/VISA, Table 6, 2nd, read-out: MIC
[10] = Day 22, prior to ramoplanin therapy, control group, 25 mg/kg/day vancomycin
[11] = Day 22, prior to ramoplanin therapy, ramoplanin group, on 25 mg/kg/day vancomycin
[12] = Day 29, control group, 25 mg/kg/day vancomycin
[13] = Day 36, 7 days after completion of ramoplanin therapy, former ramoplanin group, on 25 mg/kg/day vancomycin
[14] = Day 36, control group, 25 mg/kg/day vancomycin

Question: Which results are given for `CC(=O)NC[C@H]1CN(c2ccc(N3CCOCC3)c(F)c2)C(=O)O1` [Linezolid]?
Answer: MIC ([1]; Table 6, 1st, read-out: MIC): 4 µg/mL (≈ 11.9 µM); MIC ([1]; Table 6, 2nd, read-out: MIC): 2 µg/mL (≈ 5.93 µM); MIC [2, 8]: 4 µg/mL (≈ 11.9 µM); MIC [2, 9]: 2 µg/mL (≈ 5.93 µM); MIC ([3]; Table 6, 1st, read-out: MIC): 4 µg/mL (≈ 11.9 µM); MIC ([3]; Table 6, 2nd, read-out: MIC): 2 µg/mL (≈ 5.93 µM); MIC ([4]; Table 6, 1st, read-out: MIC): 2 µg/mL (≈ 5.93 µM); MIC ([4]; Table 6, 2nd, read-out: MIC): 1 µg/mL (≈ 2.96 µM); MIC ([5]; Table 6, 1st, read-out: MIC): 4 µg/mL (≈ 11.9 µM); MIC ([5]; Table 6, 2nd, read-out: MIC): 2 µg/mL (≈ 5.93 µM)

Question: `COc1cccc(OC)c1C(=O)N[C@@H]1C(=O)N2[C@@H]1SC(C)(C)[C@@H]2C(=O)O` [Meth., methicillin] was tested. Which MIC ([1]; Table 6, 1st, read-out: MIC) did it give?
Answer: > 16 µg/mL

Question: What about the MIC ([1]; Table 6, 2nd, read-out: MIC) of the same molecule?
Answer: > 64 µg/mL

Question: And the MIC [2, 8]?
Answer: > 16 µg/mL

Question: And the MIC [2, 9]?
Answer: > 64 µg/mL

Question: What about the MIC ([3]; Table 6, 1st, read-out: MIC) of the same molecule?
Answer: 1 µg/mL (≈ 2.63 µM)

Question: What about the MIC ([3]; Table 6, 2nd, read-out: MIC) of the same molecule?
Answer: 2 µg/mL (≈ 5.26 µM)

Question: What about the MIC ([4]; Table 6, 1st, read-out: MIC) of the same molecule?
Answer: > 16 µg/mL

Question: What about the MIC ([4]; Table 6, 2nd, read-out: MIC) of the same molecule?
Answer: 64 µg/mL (≈ 168 µM)

Question: And the MIC ([5]; Table 6, 1st, read-out: MIC)?
Answer: > 16 µg/mL

Question: And the MIC ([5]; Table 6, 2nd, read-out: MIC)?
Answer: > 64 µg/mL

Question: For `CN[C@H](CC(C)C)C(=O)N[C@H]1C(=O)N[C@@H](CC(N)=O)C(=O)N[C@H]2C(=O)N[C@H]3C(=O)N[C@H](C(=O)N[C@H](C(=O)O)c4cc(O)cc(O)c4-c4cc3ccc4O)[C@H](O)c3ccc(c(Cl)c3)Oc3cc2cc(c3O[C@@H]2O[C@H](CO)[C@@H](O)[C@H](O)[C@H]2O[C@H]2C[C@](C)(N)[C@H](O)[C@H](C)O2)Oc2ccc(cc2Cl)[C@H]1O` [Vancomycin], which “% Mice with VRE” value [6, 10] is on record?
Answer: 100%

Question: And the “Enterococci in faeces: Total Enterococci” value [6, 10]?
Answer: 9.6 log 10 cfu/g faeces

Question: What about the “Enterococci in faeces: VRE” value [6, 10] of the same molecule?
Answer: 9.7 log 10 cfu/g faeces

Question: And the “% Mice with VRE” value [6, 11]?
Answer: 100%

Question: What about the “Enterococci in faeces: Total Enterococci” value [6, 11] of the same molecule?
Answer: 9.8 log 10 cfu/g faeces

Question: What about the “Enterococci in faeces: VRE” value [6, 11] of the same molecule?
Answer: 9.7 log 10 cfu/g faeces

Question: What about the “% Mice with VRE” value [6, 12] of the same molecule?
Answer: 100%

Question: And the “Enterococci in faeces: Total Enterococci” value [6, 12]?
Answer: 9.3 log 10 cfu/g faeces

Question: What about the “Enterococci in faeces: VRE” value [6, 12] of the same molecule?
Answer: 9.4 log 10 cfu/g faeces

Question: And the “% Mice with VRE” value [6, 13]?
Answer: 100%

Question: What about the “Enterococci in faeces: Total Enterococci” value [6, 13] of the same molecule?
Answer: 8.6 log 10 cfu/g faeces

Question: And the “Enterococci in faeces: VRE” value [6, 13]?
Answer: 8.7 log 10 cfu/g faeces

Question: And the “% Mice with VRE” value [6, 14]?
Answer: 100%

Question: And the “Enterococci in faeces: Total Enterococci” value [6, 14]?
Answer: 9.6 log 10 cfu/g faeces

Question: What about the “Enterococci in faeces: VRE” value [6, 14] of the same molecule?
Answer: 9.3 log 10 cfu/g faeces

Question: What about the MIC ([7]; E. faecium A 6350 Line-R (Table 2), TSB) of the same molecule?
Answer: >16, >16 μg/ml

Question: And the MIC ([7]; Enterococcus faecium, A6350LINER)?
Answer: > 16 µg/mL

Question: What about the MIC ([1]; CAMHB) of the same molecule?
Answer: > 16 µg/mL

Question: What about the MIC ([1]; TSB) of the same molecule?
Answer: > 16 µg/mL

Question: And the MIC ([1]; Table 6, 1st)?
Answer: > 16 µg/mL

Question: What about the MIC ([1]; Table 6, 2nd) of the same molecule?
Answer: > 64 µg/mL

Question: What about the MIC ([2]; S. aureus ATCC700699 MRSA/VISA, TSB) of the same molecule?
Answer: 2, 2 μg/ml

Question: And the MIC ([2]; S. aureus ATCC700699 MRSA/VISA, Table 6, 1st)?
Answer: 2 µg/mL (≈ 1.38 µM)

Question: And the MIC ([2]; S. aureus ATCC700699 MRSA/VISA, Table 6, 2nd)?
Answer: 2 µg/mL (≈ 1.38 µM)

Question: What about the MIC ([2]; Staphylococcus aureus) of the same molecule?
Answer: 2 µg/mL (≈ 1.38 µM)

Question: And the MIC ([3]; CAMHB)?
Answer: 2 µg/mL (≈ 1.38 µM)

Question: And the MIC ([3]; TSB)?
Answer: > 16 µg/mL

Question: What about the MIC ([3]; Table 6, 1st) of the same molecule?
Answer: 1 µg/mL (≈ 0.69 µM)

Question: And the MIC ([3]; Table 6, 2nd)?
Answer: 1 µg/mL (≈ 0.69 µM)

Question: And the MIC ([4]; CAMHB)?
Answer: 4 µg/mL (≈ 2.76 µM)

Question: And the MIC ([4]; TSB)?
Answer: 4 µg/mL (≈ 2.76 µM)

Question: And the MIC ([4]; Table 6, 1st)?
Answer: 2 µg/mL (≈ 1.38 µM)

Question: And the MIC ([4]; Table 6, 2nd)?
Answer: 2 µg/mL (≈ 1.38 µM)

Question: And the MIC ([5]; CAMHB)?
Answer: 4 µg/mL (≈ 2.76 µM)

Question: And the MIC ([5]; TSB)?
Answer: 4 µg/mL (≈ 2.76 µM)

Question: And the MIC ([5]; Table 6, 1st)?
Answer: 2 µg/mL (≈ 1.38 µM)

Question: What about the MIC ([5]; Table 6, 2nd) of the same molecule?
Answer: 2 µg/mL (≈ 1.38 µM)
